Entries after “also recorded” stand apart in the source; their conditions may differ.
Legend:
Galr2 [1] = experiment: Galr2 internalization assay based on HiBiT technology; assay type: cell-based, human; settings: HEK293 cells; agonist 30 min; two independent experiments in triplicate
Procedure: The HiBiT protein tagging system, like NanoBiT technology, consists of two subunits: the large fragment (LgBiT) with 156 amino acids and the small fragment of Nluc (SmBiT-High-affinity) with only 11 amino acids that has a very high affinity to LgBit. To quantify Galr2 at the cell surface, cells expressing Galr2 tagged with the SmBiT-High-affinity were treated with cell-impermeable LgBiT along with the Nluc substrate furimazine. SmBiT-High-affinity-Galr2 on the cell surface binds to LgBiT which produces a luminescent signal, while SmBiT-High-affinity-Galr2 inside the cells cannot bind to LgBiT (Fig. 4a).
Fig. 4 Internalization of Galr2. a Schematic representation of the internalization assay. […] Before ligand stimulation, cells were pretreated with 30 μM Cmpd101 (a GRK2/3 inhibitor) for 30 min, 25 μM PitStop 2 (a Clathrin inhibitor) for 15 min, and 80 μM Dynasore (a Dynamin inhibitor) for 40 min. […] Remaining cell surface receptors were determined by measuring the luminescent signal produced by the binding between LgBiT and the Galr2-SmBiT-High affinity. Each data point represents mean ± s. e. m. of two independent experiments performed in triplicate
Quantification of bias between each pathway was performed using Galanin as a reference ligand. All incubations for the different signaling assays were performed in serum-free medium to prevent peptide degradation.
Internalization assays were performed using the Nano-Glo HiBiT extracellular detection system acquired from Promega Corporation (Cat. No. N2421). The day before transfection, HEK293 cells were seeded in 96-well plates at a density of 2.5 × 10^4 cells per well. The following day, cells were transfected with a mixture prepared containing 0.5 ng of SmBiT-high-affinity-Galr2 construct and 0.2 μl Lipofectamine 2000 (Invitrogen) added to each well. […] Then luminescence values were recorded immediately (Synergy 2 Multi-Mode Microplate Reader BioTek). […]

Galr2 [2] = experiment: Total inositol phosphate production; assay type: cell-based, human; settings: for Log(τ/KA), Total inositol phosphate: HEK293 cells, human Galr2, 40 min at 37 °C, operational model (Eq. 2)
Source text: Galr2 is primarily coupled to the Gαq-protein which activates the phospholipase C/protein kinase C pathway for inositol phosphate production. We measured G-protein activation in HEK293 cells transiently expressing Galr2, using the serum response element-luciferase (SRE-Luc) gene reporter assay[10],[37] and for a more specific monitoring of Gαq-protein activity we also measured total inositol phosphate production. […] However, some differences were observed between SRE-Luc activity and total inositol phosphate production in the rank order of potency of the tested ligands. […] Phosphorylation of extracellular signal-regulated protein kinases 1 and 2 (pErk1/2) is either G-protein or β-arrestin dependent. To distinguish Gαq-protein- and β-arrestin1/2-dependent Erk1/2 signaling, we examined ligand-stimulated Erk1/2 phosphorylation in three different HEK293 cell lines, wild type, Gαq/11-knockout, and β-arrestin1/2-knockout cells. All three ligands induced high levels of Erk1/2 phosphorylation dose-dependently in wild-type HEK293 cells.
Fig. 5 Galr2 agonists display different Gαq-protein-dependent signaling and pErk1/2. The ability of increasing concentrations of agonists to induce a SRE-Luc activity and b total inositol phosphate production. c Representative western blot showing ligand-induced phosphorylation of Erk1/2 from wild-type (HEK293 WT), Gαq/11-, and β-arrestin1/2-knockout HEK293 cells expressing Galr2 (original blots are presented in Supplementary Figure 4). pErk1/2 and total Erk levels were determined at 5 min after stimulation of different concentrations of three ligands. Western blot band intensities corresponding to each concentration were quantified using Image studio ^TM Software. […] Data are the mean ± s.e.m. values of two independent experiments
Galr2 activation was monitored using measurement of total inositol phosphate (IP + IP2 + IP3) production in HEK293 cells expressing human Galr2. For this assay, cells were seeded in 12-well plates at a density of 2.5 × 10^5 cells per well. The next day, the cells were transiently transfected with 1 μg/well plasmid containing human Galr2, using the Lipofectamine 2000 (Invitrogen) transfection reagent. The day after transfection, the cells were incubated in M199 medium containing 1% FBS, 1% L-glutamine, 1% penicillin/streptomycin, and 1 μCi/well myo-^3H inositol for 20 h. After a 30-min incubation in buffer A (140 mM NaCl, 20 mM Hepes, 4 mM KCl, 8 mM D-glucose, 1 mM MgCl2, 1 mM CaCl2, 1 mg/ml free fatty acid bovine serum albumin, and 10 mM LiCl at pH 7.2), the cells were exposed to the agonist for 40 min at 37 °C. […] The radioactivity of the samples was measured using a TRI carb 3100TR liquid scintillation analyzer (Packard).

[3] = mean ± s.e.m. of three experiments in triplicate

Molecule: Galanin [reference compound]
- Galr2 internalization (decrease of cell-surface luminescent signal) (Galr2 [1]): significantly decreased the luminescent signal in a dose-dependent manner; also recorded: efficiently induced internalization in a dose-dependent manner
- Log(τ/KA), Total inositol phosphate (Galr2 [2]; [3]): 4.20 ± 0.03
- ΔLog(τ/KA), Total inositol phosphate (Galr2 [2]; normalized to Galanin (reference agonist), in parenthesis, mean ± s.e.m. of three experiments in triplicate): 0.00 ± 0.02

B1: Spexin (peptide, UniProt Q9BT56 27-116, looked up)
Spexin: APQRLLERRNWTPQAMLYLKGAQGRRFISDQSRRKDLSDRPLPERRSPNPQLLTIPEAATILLASLQKSPEDEEKNFDQTRFLEDSLLNW
modifications: Spexin
notes: endogenous peptide ligand of Galr2 and Galr3; synthesized by AnyGen
- Galr2 internalization (decrease of cell-surface luminescent signal) (Galr2 [1]): marginally induce internalization of the receptor; also recorded: Galr2 internalization was not detected; also recorded: did not detect Galr2 internalization
- efficacy in total inositol phosphate production (Galr2 [2]; HEK293 cells transiently expressing Galr2): substantially higher efficacy
- Log(τ/KA), Total inositol phosphate (Galr2 [2]; [3]): 4.40 ± 0.03

Source: paper PMC6123711, “Conformational signatures in β-arrestin2 reveal natural biased agonism at a G-protein-coupled receptor” (Communications Biology, 2018)
